From patent US10047105B2, “Gyrase inhibitors” (Merck Sharp & Dohme Corp., priority 2009, dated 2018) come the findings set out here.

One assay concerns S. pneumoniae ATCC 51916. Nature of the assay: MIC, S. pneumoniae. Conditions: S. pneumoniae. The assay is classed as cell-based.
The subject of the next assay is S. aureus ATCC 13709. The assay can be described thus: MIC, antibacterial potency, S. aureus. Type of assay: cell-based. Conditions: S. aureus.

Values after ≈ are worked out from the molar mass of the structure shown.

On to `CCc1[nH]c2nc(Oc3cccnc3)nc(Oc3cccnc3)c2c1C(F)(F)F.O=C(O)C(F)(F)F` [700,654], for which the MIC Spn52 against S. pneumoniae ATCC 51916 is more than 64 µg/mL. Also, in the assay on S. aureus ATCC 13709, the MIC, SA is more than 64 µg/mL.

Compound `CCc1[nH]c2nc(Sc3cnc4nccnc4c3)nc(N3CC4CC3CN4)c2c1Cl.O=C(O)C(F)(F)F` (stereo not shown) [700,655] gave an MIC Spn52 in the assay with S. pneumoniae ATCC 51916 of 2 µg/mL. In the assay on S. aureus ATCC 13709, this compound gave an MIC, SA of more than 64 µg/mL.

For the compound `CCc1[nH]c2nc(Sc3cnc4nccnc4c3)nc(N3CCC(C(O)c4cccs4)CC3)c2c1Cl.O=C(O)C(F)(F)F` (stereo not shown) [700,656], in the assay on S. pneumoniae ATCC 51916, the MIC Spn52 worked out at 2 µg/mL. The compound further gave an MIC, SA against S. aureus ATCC 13709 not above 0.5 µg/mL.

`CCc1[nH]c2nc(Sc3cnc4nccnc4c3)nc(N3CC[C@H](O)[C@H]3CO)c2c1Cl` [700,657] had an MIC Spn52 with S. pneumoniae ATCC 51916 of 2 µg/mL (≈ 4.37 µM). The same compound yielded an MIC, SA in the assay on S. aureus ATCC 13709 of 8 µg/mL (≈ 17.5 µM).

Consider `CCc1[nH]c2nc(Sc3cnc4nccnc4c3)nc(N3CC4C(C3)C4NC(=N)N)c2c1Cl` (stereo not shown) [700,658], for which, in the assay with S. pneumoniae ATCC 51916, the MIC Spn52 is 8 µg/mL (≈ 16.6 µM). In the assay with S. aureus ATCC 13709, this compound yielded an MIC, SA not above 0.5 µg/mL.

In turn, `CCc1[nH]c2nc(Sc3cnc4cccnc4c3)nc(N3CC[C@H](O)[C@H]3CO)c2c1Cl` [700,659] had an MIC Spn52 in the assay with S. pneumoniae ATCC 51916 of 2 µg/mL (≈ 4.38 µM). The compound also gave an MIC, SA in the assay with S. aureus ATCC 13709 of 4 µg/mL (≈ 8.75 µM).

Regarding `CCc1[nH]c2nc(Sc3cnc4cccnc4c3)nc(N3CC4CNC4C3)c2c1Cl` (stereo not shown) [700,660], the MIC Spn52 in the assay with S. pneumoniae ATCC 51916 came to 1 µg/mL (≈ 2.28 µM). Moreover, in the assay with S. aureus ATCC 13709, the MIC, SA was not above 0.5 µg/mL.

Turning to `CCc1[nH]c2nc(Sc3ccc4c(N5CC(N)C5)cc(C(=O)O)nc4c3)nc(N3CC4C(N)C4C3)c2c1Cl` (stereo not shown) [700,661], in the assay on S. pneumoniae ATCC 51916, the MIC Spn52 was more than 64 µg/mL. For the same compound, in the assay with S. aureus ATCC 13709, the MIC, SA is more than 64 µg/mL.

For `CCOc1nc(Oc2ccc3c(N)nc(C)nc3c2)nc2[nH]c(CC)c(Cl)c12.O=C(O)C(F)(F)F` [700,664], in the assay on S. pneumoniae ATCC 51916, the MIC Spn52 came out at 4 µg/mL. Also, the MIC, SA against S. aureus ATCC 13709 worked out at 2 µg/mL.

`CCOc1nc(Oc2cccnc2)nc2[nH]c(CC)c(Cl)c12.O=C(O)C(F)(F)F` [700,665] showed an MIC Spn52 with S. pneumoniae ATCC 51916 of 8 µg/mL. The compound also came in with an MIC, SA in the assay on S. aureus ATCC 13709 of 2 µg/mL.

The compound `CCc1[nH]c2nc(Sc3ccc(C#N)c(F)c3)nc(N3CC[C@@H](N)C3)c2c1Cl.O=C(O)C(F)(F)F` [700,666] showed an MIC Spn52 in the assay with S. pneumoniae ATCC 51916 of 4 µg/mL. This compound gave an MIC, SA against S. aureus ATCC 13709 of 2 µg/mL.

As to `CCc1[nH]c2nc(Sc3cnc4nccnc4c3)nc(N3CC(Oc4cccnc4)C3)c2c1Cl.O=C(O)C(F)(F)F.O=C(O)C(F)(F)F` [700,667], the MIC Spn52 in the assay on S. pneumoniae ATCC 51916 stood at 1 µg/mL. Moreover, the MIC, SA against S. aureus ATCC 13709 was not above 0.5 µg/mL.

Regarding `CCc1[nH]c2nc(Sc3cnc4nccnc4c3)nc(N3CC(Oc4ccc(OC)cc4)C3)c2c1Cl.O=C(O)C(F)(F)F` [700,668], the MIC Spn52 against S. pneumoniae ATCC 51916 was more than 64 µg/mL. Moreover, the MIC, SA with S. aureus ATCC 13709 amounted to 8 µg/mL.

In the assay with S. pneumoniae ATCC 51916, `CCc1[nH]c2nc(Sc3cnc4nccnc4c3)nc(N3CC(Oc4ccc(C(F)(F)F)cc4)C3)c2c1Cl.O=C(O)C(F)(F)F` [700,669] had an MIC Spn52 of more than 64 µg/mL. In the assay with S. aureus ATCC 13709, this compound showed an MIC, SA of more than 64 µg/mL.

`CCc1[nH]c2nc(Sc3cnc4nccnc4c3)nc(N3CC(C(N)=O)C3)c2c1Cl.O=C(O)C(F)(F)F` [700,670]: in the assay with S. pneumoniae ATCC 51916, the MIC Spn52 is 16 µg/mL. Moreover, the MIC, SA against S. aureus ATCC 13709 is 16 µg/mL.

As for `CCc1[nH]c2nc(Sc3cnc4nccnc4c3)nc(N3CC(N4CCN(C(=O)OC(C)(C)C)CC4)C3)c2c1Cl.O=C(O)C(F)(F)F.O=C(O)C(F)(F)F` [700,671], the MIC Spn52 against S. pneumoniae ATCC 51916 was 32 µg/mL. For the same compound, the MIC, SA against S. aureus ATCC 13709 turned out to be 8 µg/mL.

On to `CCc1[nH]c2nc(Sc3cnc4nccnc4c3)nc(N3CC(N4CCNCC4)C3)c2c1Cl.O=C(O)C(F)(F)F.O=C(O)C(F)(F)F` [700,672], for which the MIC Spn52 in the assay on S. pneumoniae ATCC 51916 is 8 µg/mL. This compound showed an MIC, SA with S. aureus ATCC 13709 of 8 µg/mL.

Consider `CCc1[nH]c2nc(Sc3cnc4nccnc4c3)nc(N3CC4CNC4C3)c2c1Br.O=C(O)C(F)(F)F` (stereo not shown) [700,673], for which, in the assay with S. pneumoniae ATCC 51916, the MIC Spn52 is 4 µg/mL. Besides, the MIC, SA against S. aureus ATCC 13709 turned out to be 2 µg/mL.

Compound `CCc1[nH]c2nc(Sc3cnc4ccoc4c3)nc(N3CCC(N)C3)c2c1Cl.O=C(O)C(F)(F)F` (stereo not shown) [700,676] had an MIC Spn52 in the assay on S. pneumoniae ATCC 51916 of 8 µg/mL. For the same compound, the MIC, SA against S. aureus ATCC 13709 is 4 µg/mL.

For the compound `CCc1[nH]c2nc(Sc3cnc4ccoc4c3)nc(N3CC4CNC4C3)c2c1Cl.O=C(O)C(F)(F)F` (stereo not shown) [700,677], the MIC Spn52 against S. pneumoniae ATCC 51916 is 8 µg/mL. The MIC, SA in the assay with S. aureus ATCC 13709 worked out at 2 µg/mL.

Regarding `CCc1[nH]c2nc(Sc3cnc4nccnc4c3)nc(N3CC(N)C4(CC4)C3)c2c1Cl.O=C(O)C(F)(F)F` (stereo not shown) [700,678], the MIC Spn52 against S. pneumoniae ATCC 51916 was found to be 2 µg/mL. The same compound yielded an MIC, SA in the assay on S. aureus ATCC 13709 of 1 µg/mL.

As to `CCc1[nH]c2nc(Sc3cnc4ccoc4c3)nc(N3CCC(N)C3)c2c1Br.O=C(O)C(F)(F)F` (stereo not shown) [700,679], in the assay on S. pneumoniae ATCC 51916, the MIC Spn52 was more than 64 µg/mL. For the same compound, the MIC, SA with S. aureus ATCC 13709 was more than 64 µg/mL.

Compound `CCc1[nH]c2nc(Sc3cnc4ccoc4c3)nc(N3CC4CNC4C3)c2c1Br.O=C(O)C(F)(F)F` (stereo not shown) [700,680] displayed an MIC Spn52 against S. pneumoniae ATCC 51916 of 64 µg/mL. The compound also registered an MIC, SA in the assay on S. aureus ATCC 13709 of 16 µg/mL.

With `CCc1[nH]c2nc(Sc3cnc4nccnc4c3)nc(Oc3cncc(OC)c3)c2c1Cl` [700,686], in the assay with S. pneumoniae ATCC 51916, the MIC Spn52 is more than 64 µg/mL. In the assay with S. aureus ATCC 13709, this compound came in with an MIC, SA of more than 64 µg/mL.

Turning to `CCc1[nH]c2nc(Sc3ccc4c(N)ncnc4c3)nc(Oc3cncc(OC)c3)c2c1Cl` [700,687], the MIC Spn52 against S. pneumoniae ATCC 51916 is more than 64 µg/mL. In the assay on S. aureus ATCC 13709, the MIC, SA is more than 64 µg/mL.

Turning to `CCc1[nH]c2nc(Sc3cnc4nccnc4c3)nc(N3CCC[C@H]3COC)c2c1Cl` [700,688], the MIC Spn52 in the assay on S. pneumoniae ATCC 51916 was not above 0.5 µg/mL. Further, the MIC, SA with S. aureus ATCC 13709 is not above 0.5 µg/mL.

With `CCc1[nH]c2nc(Sc3ccc4c(N)ncnc4c3)nc(N3CC4CNC4C3)c2c1Cl` (stereo not shown) [700,689], in the assay with S. pneumoniae ATCC 51916, the MIC Spn52 was found to be 8 µg/mL (≈ 17.7 µM). In the assay with S. aureus ATCC 13709, the MIC, SA stood at 2 µg/mL (≈ 4.42 µM).

Turning to `CCOc1nc(Oc2ccc3nc(C)ccc3c2)nc2[nH]c(CC)c(Cl)c12.O=C(O)C(F)(F)F` [700,690], the MIC Spn52 against S. pneumoniae ATCC 51916 worked out at 8 µg/mL. Further, in the assay on S. aureus ATCC 13709, the MIC, SA was more than 64 µg/mL.

The compound `CCOc1nc(Oc2ccc3ccncc3c2)nc2[nH]c(CC)c(Cl)c12.O=C(O)C(F)(F)F` [700,691] registered an MIC Spn52 against S. pneumoniae ATCC 51916 of more than 64 µg/mL. Besides, the MIC, SA against S. aureus ATCC 13709 is more than 64 µg/mL.

`CCc1[nH]c2nc(Sc3ccc4nc[nH]c(=O)c4c3)nc(N3CC(N)C3)c2c1Cl.O=C(O)C(F)(F)F` [700,694]: the MIC Spn52 in the assay with S. pneumoniae ATCC 51916 amounted to 8 µg/mL. Further, the MIC, SA against S. aureus ATCC 13709 is 2 µg/mL.

As for `CCc1[nH]c2nc(Sc3ccc4cc(C(=O)N5CC[C@@H](N)C5)cnc4c3)nc(N3CC[C@@H](N)C3)c2c1Cl` [700,695], the MIC Spn52 in the assay with S. pneumoniae ATCC 51916 is 32 µg/mL (≈ 59.6 µM). The compound further came in with an MIC, SA against S. aureus ATCC 13709 of 16 µg/mL (≈ 29.8 µM).

`CCc1[nH]c2nc(Sc3cnc4[nH]c(C(F)(F)F)nc4c3)nc(N3CC[C@@H](N)C3)c2c1Cl` [700,696] showed an MIC Spn52 with S. pneumoniae ATCC 51916 of 16 µg/mL (≈ 33.1 µM). Moreover, the MIC, SA in the assay on S. aureus ATCC 13709 was more than 64 µg/mL.

As to `CCc1[nH]c2nc(Sc3ccc4cc(C(=O)N[C@H]5CCOC5=O)cnc4c3)nc(N3CC[C@@H](N)C3)c2c1Cl` [700,697], the MIC Spn52 in the assay with S. pneumoniae ATCC 51916 is 8 µg/mL (≈ 14.5 µM). For the same compound, in the assay with S. aureus ATCC 13709, the MIC, SA came out at 4 µg/mL (≈ 7.25 µM).

With `CCc1[nH]c2nc(Sc3ccc4cc(C(=O)OC)cnc4c3)nc(N3CC[C@@H](N)C3)c2c1Cl` [700,698], in the assay on S. pneumoniae ATCC 51916, the MIC Spn52 is 8 µg/mL (≈ 16.6 µM). The MIC, SA in the assay on S. aureus ATCC 13709 was not above 0.5 µg/mL.

In the assay on S. pneumoniae ATCC 51916, `CCOc1nc(Oc2ccc3[nH]ccc3c2)nc2[nH]c(CC)c(Cl)c12.O=C(O)C(F)(F)F` [700,699] had an MIC Spn52 of 64 µg/mL. Also, the MIC, SA against S. aureus ATCC 13709 was 2 µg/mL.

In the assay on S. pneumoniae ATCC 51916, `CCc1[nH]c2nc(Sc3cnc4nccnc4c3)nc(N3CCC(N4CCN(C)CC4)C3)c2c1Cl.O=C(O)C(F)(F)F.O=C(O)C(F)(F)F` (stereo not shown) [700,700] returned an MIC Spn52 of 8 µg/mL. In the assay on S. aureus ATCC 13709, this compound registered an MIC, SA of 4 µg/mL.

`CCOc1nc(Nc2cncnc2)nc2[nH]c(CC)c(Br)c12.O=C(O)C(F)(F)F` [700,701] yielded an MIC Spn52 in the assay with S. pneumoniae ATCC 51916 of 8 µg/mL. In addition, in the assay with S. aureus ATCC 13709, the MIC, SA was 1 µg/mL.

On to `CCOc1nc(Nc2cncnc2)nc2[nH]c(CC)c(Cl)c12.O=C(O)C(F)(F)F` [700,702], for which the MIC Spn52 against S. pneumoniae ATCC 51916 came out at 16 µg/mL. Further, the MIC, SA against S. aureus ATCC 13709 came out at 2 µg/mL.
